Measurements: patent US11978600B2, “Dielectric-insulation or arc-extinction fluid” (HITACHI ENERGY LTD, priority 2019, dated 2024)

Columns and labels:
[1] = Decomposition rate under partial discharge in the presence of oxygen; assay type: physicochemical; settings: gas mixture with O2 and CO2 (4 vol.-% 2-C4HF7, 4 vol.-% O2, 92 vol.-% CO2); needle-plane electrodes, positive DC 0-35 kV
Description: The decomposition rate of 2-C4HF7 in a gas mixture containing carbon dioxide and oxygen were tested. Specifically, a gas mixture containing 4 vol.-% 2-C4HF7, 4 vol.-% O2 and 92 vol.-% CO2 was subjected to partial discharge tests and the resulting decomposition was determined.
Specifically, an experimental setup consisting of a standard GIS-vessel (volume: 55 L) with a needle-plane electrode arrangement was used. A total of ten steel needles (R_100 μm) were connected to a high voltage DC power supply (positive, 0-35 kV). The gap spacing was set to 10 mm. The vessel was equipped with a fan keeping the gas mixture homogeneous during the experiments.

[2] = Dielectric withstand test (breakdown voltage, step DC, uniform field); assay type: physicochemical
Description: In addition to these tests, the dielectric strength of a mixture containing a monohydrofluoroolefin according to various embodiments, specifically 2-C4HF7, and having a dew point of −5° C. and −30° C., respectively, was determined and compared to the respective dielectric strength of the perfluoroketone decafluoro-3-methylbutan-2-one (“C5”).
Specifically, dielectric withstand tests were performed under DC (step DC, rise-time 300 ns, maximum application time 30 s) in a small vessel (6 L) and custom-built for dielectric testing. Large electrodes (12 cm diameter) with a Rogowski-profile and separated by a small (1.0 cm) distance were used to obtain a uniform field. Prior to the test, the electrodes were sandblasted to create a uniform surface roughness profile (Rt=40 μm).
A large amount of measurements (typically, more than 100) of measurements were performed; the peak voltage level used for each voltage application was randomly selected in the region close to U50, the voltage level for which a 50% breakdown probability is expected. The outcome (breakdown or hold) of each measurement is extracted from the time-dependence of the voltage across the test object. A probit regression is then used to fit the results to a probability distribution and to extract U50 and s, the width of the breakdown probability distribution, from the measurement data.

| SMILES | decomposition rate under partial discharge [1] | breakdown voltage ([2]; negative direct current, mixture, partial pressure 228 mbar at 20° C.) | breakdown voltage ([2]; positive direct current, mixture, partial pressure 228 mbar at 20° C.) | breakdown voltage ([2]; negative direct current, mixture with O2 and CO2, dew point -5° C.) | breakdown voltage ([2]; negative direct current, mixture with O2 and CO2, dew point -30° C.) | breakdown voltage ([2]; positive direct current, mixture with O2 and CO2, dew point -5° C.) | breakdown voltage ([2]; positive direct current, mixture with O2 and CO2, dew point -30° C.) |
| --- | --- | --- | --- | --- | --- | --- | --- |
| FC(=C(F)C(F)(F)F)C(F)(F)F [2-C4F8, octafluorobutene] | 7 mmol/C | 17.5 kV/mm | 17.7 kV/mm | – | – | – | – |
| O=C(C(F)(F)F)C(F)(C(F)(F)F)C(F)(F)F [C5, 1,1,1,3,4,4,4-heptafluoro-3-(trifluoromethyl)-butan-2-one] | – | – | – | 19.2 kV/mm | 16.5 kV/mm | 19.7 kV/mm | 16.9 kV/mm |
